This note sets out measurements from ChEMBL document CHEMBL1201862, “PubChem BioAssay data set” (2004).

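Cells were grown in 96-well plates and exposed to each compound for 48 hours at five concentrations; endpoints were interpolated linearly between bracketing concentrations, or set to the highest concentration if not reached. The concentration for 50% growth inhibition is given as GI50.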 Activity calls are given as the source filed them. Cut-off read from the data, not from the text of the source: active = GI50 up to about 1.1 µM and inactive = higher.

Test in all cases: NCI anticancer screen, dose series, 48 h
Assay [1] relates to HCC 2998.
Assay [2] relates to MDA-N.
The test system of assay [3] is KM12.
Assay [4] has as its system MOLT-4.
Assay [5] concerns CCRF-CEM.
Assay [6] relates to A549.
The test system of assay [7] is SF-295.
Assay [8] concerns SN12C.
In assay [9] the test system is OVCAR-4.
Assay [10] has as its system LOX IMVI.
Assay [11] deals with 786-0.
Assay [12] has as its system CAKI-1.
For assay [13], the system named is NCI/ADR-RES.
The test system of assay [14] is K562.
In assay [15] the test system is U-251.
Assay [16] deals with MDA-MB-435.
Assay [17] relates to RXF 393.
Assay [18] has as its system IGROV-1.
The subject of assay [19] is HL-60.

Consider `COc1ccccc1NCc1nnc(CCCCCCCCc2nnc(CNc3ccccc3OC)o2)o1`, for which the GI50 in assay [1], in assay [2], in assay [3], in assay [4], in assay [5] and in assay [6] was > 100 µM (inactive) in each case. In addition, the GI50 in [7], in assay [8], in [9], in assay [10], in assay [11] and in [12] was > 100 µM (inactive) throughout. Besides, the GI50 in assay [13], in [14], in assay [15], in assay [16] and in [17] was > 100 µM (inactive) in each case.
Turning to `O=C1CC2(CCN(Cc3ccccc3)CC2)C(=O)N1N1CCCCC1`, the GI50 in [2], in assay [3], in [4], in [6], in assay [7] and in assay [8] was > 100 µM (inactive) throughout. Further, the GI50 in assay [18], in assay [10], in assay [11], in assay [12], in [13] and in [19] was > 100 µM (inactive) throughout. Also, the GI50 in assay [14], in [15], in [16] and in [17] was > 100 µM (inactive) in each case.
As for `C=CC(CBr)CCC(Br)C(C)(C)Br` (centres undefined), the GI50 in assay [1], in assay [2], in assay [3], in [4], in assay [5] and in [6] was > 10 µM (inactive) throughout. Also, the GI50 in [7], in assay [8], in assay [9], in [18], in assay [11] and in [12] was > 10 µM (inactive) each time. For the same compound, the GI50 in assay [13], in assay [14], in assay [15], in [16] and in assay [17] was > 10 µM (inactive) each time.
Turning to `O=C(/C=C\c1ccc(Cl)cc1Cl)c1cccs1`, the GI50 was 16.6 µM (inactive) in [2]; 16.3 µM (inactive) in assay [3]; 30.2 µM (inactive) in assay [4]; 21.3 µM (inactive) in [5]; 24.9 µM (inactive) in assay [6]; 18.3 µM (inactive) in assay [7]. The GI50 was 17.4 µM (inactive) in [8]; > 10 µM (inactive) in assay [10]; 17.5 µM (inactive) in assay [11]; 24.2 µM (inactive) in [12]; 30.4 µM (inactive) in [13]; 37.2 µM (inactive) in [19]. In addition, the GI50 is 21.1 µM (inactive) in assay [14], 16.6 µM (inactive) in assay [16] and 24 µM (inactive) in [17].
Regarding `CC1CC(=O)Nc2nc3ccccc3n21` (centres undefined), the GI50 in assay [2], in [3], in assay [4], in assay [5], in assay [6] and in assay [7] was > 100 µM (inactive) each time. In addition, the GI50 in assay [9], in assay [18], in [10], in [11], in assay [12] and in assay [13] was > 100 µM (inactive) in each case. The GI50 in [19], in assay [14], in assay [15], in assay [16] and in [17] was > 100 µM (inactive) throughout.
For `COc1cc(C(=O)O)c(-c2cc3c(cc2C=O)OCO3)c(OC)c1OC`, the GI50 in [1], in [2], in [3], in assay [4], in [5] and in [6] was > 10 µM (inactive) throughout. In addition, the GI50 in [7] is 4.82 µM (inactive); in [8], > 10 µM (inactive); in assay [9] it was > 10 µM (inactive); in assay [18], > 10 µM (inactive); in [10] it was > 10 µM (inactive); in assay [11] it was > 10 µM (inactive). In addition, the GI50 in assay [12], in assay [13], in assay [19], in [14], in assay [15] and in assay [16] was > 10 µM (inactive) each time.
As to `O=C1OS2(OCc3cccc4cccc2c34)c2ccccc21` (centres undefined), the GI50 is > 100 µM (inactive) in [1]; > 100 µM (inactive) in [2]; > 100 µM (inactive) in [3]; > 100 µM (inactive) in [4]; 40.3 µM (inactive) in assay [5]; > 100 µM (inactive) in [6]. The GI50 in [7], in assay [8], in assay [9], in assay [18], in assay [10] and in assay [11] was > 100 µM (inactive) throughout. Moreover, the GI50 in assay [12], in [13], in assay [19], in assay [14], in assay [15] and in assay [16] was > 100 µM (inactive) each time.
On to `Cc1ccc(C(=O)N/N=C(\N=N\c2cccc([N+](=O)[O-])c2)c2ccc(N(C)C)cc2)cc1`, for which the GI50 in assay [1] was > 100 µM (inactive); in assay [2], 20.7 µM (inactive); in [3], 64.9 µM (inactive); in assay [4] it was 14.4 µM (inactive); in [5], 35 µM (inactive); in [6], > 100 µM (inactive). In addition, the GI50 in [7] is 48.6 µM (inactive); in assay [8] it was > 100 µM (inactive); in [9], 24.4 µM (inactive); in [18] it was > 100 µM (inactive); in assay [10], 99.8 µM (inactive); in assay [11] it was > 100 µM (inactive). In addition, the GI50 is 68.1 µM (inactive) in [12]; 41.8 µM (inactive) in assay [13]; 27.9 µM (inactive) in assay [19]; 30.3 µM (inactive) in assay [14]; > 100 µM (inactive) in [15]; 24.9 µM (inactive) in assay [16].
As for `COc1cc2c(c(O)c1O)C(=O)C1CCC(=O)N1C2c1cccc2ccccc12` (centres undefined), the GI50 in [2] is > 50 µM (inactive); in assay [3], > 50 µM (inactive); in [4], > 50 µM (inactive); in assay [5], > 50 µM (inactive); in assay [6] it was 30.3 µM (inactive); in assay [7], > 50 µM (inactive). Further, the GI50 in [8], in assay [9], in [18], in assay [11], in assay [13] and in [19] was > 50 µM (inactive) throughout. Moreover, the GI50 in assay [14] is > 50 µM (inactive); in [15], > 50 µM (inactive); in assay [16], > 50 µM (inactive); in assay [17], 6.28 µM (inactive).
`CN(C)CCCNc1ccc2nnn3c4ccc(OC(=O)c5ccc([N+](=O)[O-])cc5)cc4c(=O)c1c23`: the GI50 in assay [1] was 5.64 µM (inactive); in assay [2] it was 11 µM (inactive); in assay [3], 5.64 µM (inactive); in [4], 0.408 µM (active); in [5], 0.849 µM (active); in assay [6], 1.28 µM (inactive). For the same compound, the GI50 in [7] was 5.6 µM (inactive); in assay [8] it was 3.05 µM (inactive); in assay [9] it was 2.47 µM (inactive); in assay [18] it was 1.07 µM (active); in assay [10], 1.8 µM (inactive); in assay [11], 1.52 µM (inactive). For the same compound, the GI50 is 0.649 µM (active) in assay [12]; 8.2 µM (inactive) in [13]; 2.86 µM (inactive) in assay [14]; 4.58 µM (inactive) in assay [15]; 5.7 µM (inactive) in assay [16]; 1.33 µM (inactive) in [17].
For `CCCCCCCCCCCCC(O)C(=O)O` (centres undefined), the GI50 in assay [1], in assay [2], in assay [3], in [4], in assay [5] and in assay [6] was > 100 µM (inactive) each time. For the same compound, the GI50 in [7], in assay [8], in assay [9], in assay [18], in assay [10] and in assay [11] was > 100 µM (inactive) in each case. Moreover, the GI50 in [12] was > 100 µM (inactive); in assay [13], > 100 µM (inactive); in assay [19], 98.6 µM (inactive); in assay [14] it was > 100 µM (inactive); in assay [15] it was > 100 µM (inactive); in [16], > 100 µM (inactive).
Turning to `COc1cc(OC)cc(-c2nc3cc(F)ccc3s2)c1`, the GI50 was < 0.01 µM (active) in assay [1]; > 100 µM (inactive) in [2]; > 100 µM (inactive) in assay [3]; > 100 µM (inactive) in assay [5]; > 100 µM (inactive) in [6]; 10.6 µM (inactive) in assay [7]. In addition, the GI50 in assay [8] was 36.4 µM (inactive); in assay [9], > 100 µM (inactive); in assay [18], 12.3 µM (inactive); in assay [10], 53.8 µM (inactive); in [11], 9.08 µM (inactive); in assay [12], 40.2 µM (inactive). For the same compound, the GI50 in assay [13] was > 100 µM (inactive); in assay [15], 15.1 µM (inactive); in [16] it was > 100 µM (inactive); in [17] it was 17 µM (inactive).
